From ChEMBL document CHEMBL1909046, “DrugMatrix in vitro pharmacology data”
*1 amine or outer side, *2 acyl side, *3 side chain or, on linkers, in order; H or OH if unused. Where a SMILES comes first, the peptide text is derived from it. Bridges are numbered along the chain shown (N, C = ends). Roman numbers before positions name the chains, in order. [ ]: non-standard residue; d: D form. Actinocin(1to9) = Cc1c2oc3c(C)ccc(C(=O)[*:2])c3nc-2c(C(=O)[*:1])c(N)c1=O; NMeV = CN[C@H](C(=O)O)C(C)C; Sar = CNCC(=O)O

Assays:
Cytochrome P450 2C9 = Cytochrome P450 2C9 (Homo sapiens, UniProt P11712); conditions: bti-tn-5b1-4; also: in other assays of this panel Not Active means under 50% inhibition at 10 µM
Cytochrome P450 2C9, sequence (P11712 whole entry): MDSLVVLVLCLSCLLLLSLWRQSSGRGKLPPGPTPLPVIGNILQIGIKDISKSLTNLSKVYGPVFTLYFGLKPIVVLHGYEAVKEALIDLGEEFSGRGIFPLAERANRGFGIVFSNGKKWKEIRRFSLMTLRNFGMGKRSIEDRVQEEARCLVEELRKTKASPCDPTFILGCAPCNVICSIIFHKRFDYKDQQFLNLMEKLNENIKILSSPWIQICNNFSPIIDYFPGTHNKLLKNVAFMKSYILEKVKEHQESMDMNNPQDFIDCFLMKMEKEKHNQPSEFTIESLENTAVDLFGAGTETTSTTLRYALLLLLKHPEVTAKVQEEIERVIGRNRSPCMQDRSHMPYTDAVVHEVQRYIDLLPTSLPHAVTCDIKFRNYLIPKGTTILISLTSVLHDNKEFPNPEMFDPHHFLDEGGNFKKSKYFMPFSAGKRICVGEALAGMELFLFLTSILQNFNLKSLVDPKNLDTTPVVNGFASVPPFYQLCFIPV

[1] = target: Mitogen-activated protein kinase 3 (Homo sapiens, UniProt P27361); test: DRUGMATRIX: Protein Serine/Threonine Kinase, ERK1 enzyme inhibition (substrate: Myelin Basic Protein); design: species or system Escherichia coli; conditions: Not Active = under 50% inhibition at 10 µM
Mitogen-activated protein kinase 3, sequence (P27361 whole entry): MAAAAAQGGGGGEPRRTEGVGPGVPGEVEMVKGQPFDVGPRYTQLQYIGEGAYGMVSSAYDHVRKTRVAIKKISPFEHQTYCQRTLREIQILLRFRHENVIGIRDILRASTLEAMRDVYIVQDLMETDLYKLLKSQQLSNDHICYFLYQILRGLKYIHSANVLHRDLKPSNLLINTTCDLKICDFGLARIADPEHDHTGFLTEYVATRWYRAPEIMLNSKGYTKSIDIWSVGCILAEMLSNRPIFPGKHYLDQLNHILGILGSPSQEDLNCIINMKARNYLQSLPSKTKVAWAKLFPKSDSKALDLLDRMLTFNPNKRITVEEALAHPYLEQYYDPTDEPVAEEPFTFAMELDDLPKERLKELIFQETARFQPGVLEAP

Leukotriene C4 synthase = target: T1, Leukotriene C4 synthase (Cavia porcellus, UniProt A6XA80); format: tissue-based, Lung;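 also: enzyme inhibition assay of leukotriene C4 synthase, using LTA4 as the substrate; in other assays of this panel Not Active means under 50% inhibition at 10 µM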
T1 sequence (A6XA80 whole entry): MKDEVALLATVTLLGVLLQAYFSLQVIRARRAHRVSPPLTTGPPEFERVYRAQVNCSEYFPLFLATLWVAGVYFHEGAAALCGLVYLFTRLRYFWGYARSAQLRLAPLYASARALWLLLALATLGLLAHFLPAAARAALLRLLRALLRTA

Cytochrome P450 2E1 = Cytochrome P450 2E1 (Homo sapiens, UniProt P05181); conditions: bti-tn-5b1-4; also: in other assays of this panel Not Active means under 50% inhibition at 10 µM
Cytochrome P450 2E1, sequence (P05181 whole entry): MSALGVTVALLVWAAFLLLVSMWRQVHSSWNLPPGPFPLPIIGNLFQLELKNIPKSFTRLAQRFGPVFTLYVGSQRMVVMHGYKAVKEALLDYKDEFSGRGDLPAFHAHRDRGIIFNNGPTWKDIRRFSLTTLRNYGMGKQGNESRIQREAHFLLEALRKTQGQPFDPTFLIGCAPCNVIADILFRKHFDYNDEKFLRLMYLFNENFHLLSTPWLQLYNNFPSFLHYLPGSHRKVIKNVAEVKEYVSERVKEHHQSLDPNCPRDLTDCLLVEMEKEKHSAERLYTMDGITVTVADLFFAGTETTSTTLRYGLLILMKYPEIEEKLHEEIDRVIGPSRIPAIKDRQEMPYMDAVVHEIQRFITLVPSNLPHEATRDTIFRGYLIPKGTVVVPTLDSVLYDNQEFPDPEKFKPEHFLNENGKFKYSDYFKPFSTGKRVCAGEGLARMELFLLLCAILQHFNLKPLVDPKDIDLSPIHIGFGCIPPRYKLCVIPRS

[2] = target: Mitogen-activated protein kinase 1 (Homo sapiens, UniProt P28482); test: DRUGMATRIX: Protein Serine/Threonine Kinase, ERK2 enzyme inhibition (substrate: Myelin Basic Protein); design: species or system Escherichia coli; conditions: Not Active = under 50% inhibition at 10 µM
Mitogen-activated protein kinase 1, sequence (P28482 whole entry): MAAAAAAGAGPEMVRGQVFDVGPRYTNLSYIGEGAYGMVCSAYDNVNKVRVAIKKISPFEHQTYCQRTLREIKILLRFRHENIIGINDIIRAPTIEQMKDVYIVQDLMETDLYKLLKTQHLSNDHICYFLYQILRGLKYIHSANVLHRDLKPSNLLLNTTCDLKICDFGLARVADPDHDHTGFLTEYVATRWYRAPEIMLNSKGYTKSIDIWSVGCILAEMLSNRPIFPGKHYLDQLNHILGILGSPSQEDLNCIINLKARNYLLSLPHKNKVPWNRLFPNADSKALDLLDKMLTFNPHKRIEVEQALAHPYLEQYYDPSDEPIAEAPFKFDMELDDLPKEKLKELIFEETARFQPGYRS

[3] = DRUGMATRIX: Platelet-Derived Growth Factor (PDGF) radioligand binding (ligand: [125I] PDGF); format: cell-based; conditions: nih3t3; Not Active = under 50% inhibition at 10 µM
[4] = DRUGMATRIX: Potassium Channel [KATP] radioligand binding (ligand: [3H] Glyburide); format: cell membranes, Membrane; conditions: hit-t15; Not Active = under 50% inhibition at 10 µM
[5] = target: T2, Cholecystokinin receptor type A (Homo sapiens, UniProt P32238); format: cell membranes, Membrane; conditions: 1321-n1; also: in other assays of this panel Not Active means under 50% inhibition at 10 µM
T2 sequence (P32238 whole entry): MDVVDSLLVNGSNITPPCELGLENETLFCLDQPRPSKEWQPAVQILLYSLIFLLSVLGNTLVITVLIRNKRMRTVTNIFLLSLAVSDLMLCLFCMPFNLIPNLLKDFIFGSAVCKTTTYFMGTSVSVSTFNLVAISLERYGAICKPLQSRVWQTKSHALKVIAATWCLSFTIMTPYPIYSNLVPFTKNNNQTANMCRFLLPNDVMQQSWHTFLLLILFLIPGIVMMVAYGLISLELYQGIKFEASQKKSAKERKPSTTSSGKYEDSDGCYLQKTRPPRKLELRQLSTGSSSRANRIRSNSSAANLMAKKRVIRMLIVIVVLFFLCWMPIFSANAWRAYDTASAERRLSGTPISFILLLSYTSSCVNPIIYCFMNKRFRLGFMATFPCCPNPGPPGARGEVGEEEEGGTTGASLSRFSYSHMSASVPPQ

Cathepsin G = target: T3, Cathepsin G (Homo sapiens, UniProt P08311); format: tissue-based; conditions: neutrophil
T3 sequence (P08311 whole entry): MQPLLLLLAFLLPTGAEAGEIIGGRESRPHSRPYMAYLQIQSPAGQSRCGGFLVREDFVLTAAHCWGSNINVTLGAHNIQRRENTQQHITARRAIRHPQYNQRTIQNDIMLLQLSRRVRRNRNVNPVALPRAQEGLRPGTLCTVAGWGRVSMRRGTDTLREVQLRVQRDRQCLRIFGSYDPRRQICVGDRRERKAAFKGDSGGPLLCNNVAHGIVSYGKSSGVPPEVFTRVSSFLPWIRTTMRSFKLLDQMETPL

C[C@H](CCC(=O)O)[C@H]1CC[C@H]2[C@@H]3[C@H](O)C[C@@H]4C[C@H](O)CC[C@]4(C)[C@H]3C[C@H](O)[C@]12C [CHOLIC ACID]
Not Active: IC50 (Cytochrome P450 2C9) | Ki (Cytochrome P450 2C9) | IC50 [1] | IC50 (Leukotriene C4 synthase) | IC50 (Cytochrome P450 2E1) | Ki (Cytochrome P450 2E1) | IC50 [2] | IC50 [3] | Ki [3] | IC50 [4] | Ki [4] | IC50 [5] | IC50 (Cathepsin G)

Cc1cc(C2CCCCC2)n(O)c(=O)c1 [CICLOPIROX]
Not Active: IC50 (Cytochrome P450 2C9) | Ki (Cytochrome P450 2C9) | IC50 [1] | IC50 (Leukotriene C4 synthase) | IC50 (Cytochrome P450 2E1) | Ki (Cytochrome P450 2E1) | IC50 [2] | IC50 [3] | Ki [3] | IC50 [4] | Ki [4] | IC50 [5] | IC50 (Cathepsin G)

CC1=C2C(=CO[C@H](C)[C@H]2C)C(O)=C(C(=O)O)C1=O [CITRININ]
Not Active: IC50 (Cytochrome P450 2C9) | Ki (Cytochrome P450 2C9) | IC50 [1] | IC50 (Leukotriene C4 synthase) | IC50 (Cytochrome P450 2E1) | Ki (Cytochrome P450 2E1) | IC50 [2] | IC50 [3] | Ki [3] | IC50 [4] | Ki [4] | IC50 [5] | IC50 (Cathepsin G)

CC(C)(C)NCC(O)c1cc(Cl)c(N)c(Cl)c1 (stereo unspecified) [CLENBUTEROL]
Not Active: IC50 (Cytochrome P450 2C9) | Ki (Cytochrome P450 2C9) | IC50 [1] | IC50 (Leukotriene C4 synthase) | IC50 (Cytochrome P450 2E1) | Ki (Cytochrome P450 2E1) | IC50 [2] | IC50 [3] | Ki [3] | IC50 [4] | Ki [4] | IC50 [5] | IC50 (Cathepsin G)

Clc1cccc(Cl)c1NC1=NCCN1 [CLONIDINE]
Not Active: IC50 (Cytochrome P450 2C9) | Ki (Cytochrome P450 2C9) | IC50 [1] | IC50 (Leukotriene C4 synthase) | IC50 (Cytochrome P450 2E1) | Ki (Cytochrome P450 2E1) | IC50 [2] | IC50 [3] | Ki [3] | IC50 [4] | Ki [4] | IC50 [5] | IC50 (Cathepsin G)

CC1CC(OC(=O)C(O)c2ccccc2)CC(C)(C)C1 (stereo unspecified) [CYCLANDELATE]
Not Active: IC50 (Cytochrome P450 2C9) | Ki (Cytochrome P450 2C9) | IC50 [1] | IC50 (Leukotriene C4 synthase) | IC50 (Cytochrome P450 2E1) | Ki (Cytochrome P450 2E1) | IC50 [2] | IC50 [3] | Ki [3] | IC50 [4] | Ki [4] | IC50 [5] | IC50 (Cathepsin G)

Cc1c2oc3c(C)ccc(C(=O)N[C@@H]4C(=O)N[C@H](C(C)C)C(=O)N5CCC[C@H]5C(=O)N(C)CC(=O)N(C)[C@@H](C(C)C)C(=O)O[C@@H]4C)c3nc-2c(C(=O)N[C@@H]2C(=O)N[C@H](C(C)C)C(=O)N3CCC[C@H]3C(=O)N(C)CC(=O)N(C)[C@@H](C(C)C)C(=O)O[C@@H]2C)c(N)c1=O [DACTINOMYCIN] (I: T[dV]P[Sar][NMeV] / II: T[dV]P[Sar][NMeV]; ester I:1-I:C, II:1-II:C; linker I:N-II:N via Actinocin(1to9))
Not Active: IC50 (Cytochrome P450 2C9) | Ki (Cytochrome P450 2C9) | IC50 [1] | IC50 (Leukotriene C4 synthase) | IC50 (Cytochrome P450 2E1) | Ki (Cytochrome P450 2E1) | IC50 [2] | IC50 [3] | Ki [3] | IC50 [4] | Ki [4] | IC50 [5] | IC50 (Cathepsin G)

Cc1c(O)c(=O)ccn1C [DEFERIPRONE]
Not Active: IC50 (Cytochrome P450 2C9) | Ki (Cytochrome P450 2C9) | IC50 [1] | IC50 (Leukotriene C4 synthase) | IC50 (Cytochrome P450 2E1) | Ki (Cytochrome P450 2E1) | IC50 [2] | IC50 [3] | Ki [3] | IC50 [4] | Ki [4] | IC50 [5] | IC50 (Cathepsin G)

CNCCCN1c2ccccc2CCc2ccccc21 [DESIPRAMINE]
Not Active: IC50 (Cytochrome P450 2C9) | Ki (Cytochrome P450 2C9) | IC50 [1] | IC50 (Leukotriene C4 synthase) | IC50 (Cytochrome P450 2E1) | Ki (Cytochrome P450 2E1) | IC50 [2] | IC50 [3] | Ki [3] | IC50 [4] | Ki [4] | IC50 [5] | IC50 (Cathepsin G)

C[C@H]1O[C@@H](O[C@H]2[C@@H](O)C[C@H](O[C@H]3[C@@H](O)C[C@H](O[C@H]4CC[C@@]5(C)[C@H](CC[C@@H]6[C@@H]5C[C@@H](O)[C@]5(C)[C@@H](C7=CC(=O)OC7)CC[C@]65O)C4)O[C@@H]3C)O[C@@H]2C)C[C@H](O)[C@@H]1O [DIGOXIN]
Not Active: IC50 (Cytochrome P450 2C9) | Ki (Cytochrome P450 2C9) | IC50 [1] | IC50 (Leukotriene C4 synthase) | IC50 (Cytochrome P450 2E1) | Ki (Cytochrome P450 2E1) | IC50 [2] | IC50 [3] | Ki [3] | IC50 [4] | Ki [4] | IC50 [5] | IC50 (Cathepsin G)

CC(=O)O[C@@]12CO[C@@H]1C[C@H](O)[C@@]1(C)C(=O)[C@H](O)C3=C(C)[C@@H](OC(=O)[C@H](O)[C@@H](NC(=O)OC(C)(C)C)c4ccccc4)C[C@@](O)([C@@H](OC(=O)c4ccccc4)[C@H]21)C3(C)C.O.O.O [DOCETAXEL]
Not Active: IC50 (Cytochrome P450 2C9) | Ki (Cytochrome P450 2C9) | IC50 [1] | IC50 (Leukotriene C4 synthase) | IC50 (Cytochrome P450 2E1) | Ki (Cytochrome P450 2E1) | IC50 [2] | IC50 [3] | Ki [3] | IC50 [4] | Ki [4] | IC50 [5] | IC50 (Cathepsin G)

COc1cc2nc(N3CCN(C(=O)C4COc5ccccc5O4)CC3)nc(N)c2cc1OC (stereo unspecified) [DOXAZOSIN]
Not Active: IC50 (Cytochrome P450 2C9) | Ki (Cytochrome P450 2C9) | IC50 [1] | IC50 (Leukotriene C4 synthase) | IC50 (Cytochrome P450 2E1) | Ki (Cytochrome P450 2E1) | IC50 [2] | IC50 [3] | Ki [3] | IC50 [4] | Ki [4] | IC50 [5] | IC50 (Cathepsin G)

C[C@H]1c2cccc(O)c2C(=O)C2=C(O)[C@]3(O)C(=O)C(C(N)=O)=C(O)[C@@H](N(C)C)[C@@H]3[C@@H](O)[C@@H]21.O [DOXYCYCLINE]
Not Active: IC50 (Cytochrome P450 2C9) | Ki (Cytochrome P450 2C9) | IC50 [1] | IC50 (Leukotriene C4 synthase) | IC50 (Cytochrome P450 2E1) | Ki (Cytochrome P450 2E1) | IC50 [2] | IC50 [3] | Ki [3] | IC50 [4] | Ki [4] | IC50 [5] | IC50 (Cathepsin G)

O=C(CCCN1CC=C(n2c(=O)[nH]c3ccccc32)CC1)c1ccc(F)cc1 [DROPERIDOL]
Not Active: IC50 (Cytochrome P450 2C9) | Ki (Cytochrome P450 2C9) | IC50 [1] | IC50 (Leukotriene C4 synthase) | IC50 (Cytochrome P450 2E1) | Ki (Cytochrome P450 2E1) | IC50 [2] | IC50 [3] | Ki [3] | IC50 [4] | Ki [4] | IC50 [5] | IC50 (Cathepsin G)

CC(C)[C@H]1C(=O)N2CCC[C@H]2[C@]2(O)O[C@](NC(=O)[C@@H]3C=C4c5cccc6[nH]cc(c56)C[C@H]4N(C)C3)(C(C)C)C(=O)N12 [ERGOCORNINE]
Not Active: IC50 (Cytochrome P450 2C9) | Ki (Cytochrome P450 2C9) | IC50 [1] | IC50 (Leukotriene C4 synthase) | IC50 (Cytochrome P450 2E1) | Ki (Cytochrome P450 2E1) | IC50 [2] | IC50 [3] | Ki [3] | IC50 [4] | Ki [4] | IC50 [5] | IC50 (Cathepsin G)

OC(Cn1cncn1)(Cn1cncn1)c1ccc(F)cc1F [FLUCONAZOLE]
Not Active: IC50 (Cytochrome P450 2C9) | Ki (Cytochrome P450 2C9) | IC50 [1] | IC50 (Leukotriene C4 synthase) | IC50 (Cytochrome P450 2E1) | Ki (Cytochrome P450 2E1) | IC50 [2] | IC50 [3] | Ki [3] | IC50 [4] | Ki [4] | IC50 [5] | IC50 (Cathepsin G)

CC(C)C(=O)Nc1ccc([N+](=O)[O-])c(C(F)(F)F)c1 [FLUTAMIDE]
Not Active: IC50 (Cytochrome P450 2C9) | Ki (Cytochrome P450 2C9) | IC50 [1] | IC50 (Leukotriene C4 synthase) | IC50 (Cytochrome P450 2E1) | Ki (Cytochrome P450 2E1) | IC50 [2] | IC50 [3] | Ki [3] | IC50 [4] | Ki [4] | IC50 [5] | IC50 (Cathepsin G)
